From PMC9790248, “Effects of CYP3A Inhibition, CYP3A Induction, and Gastric Acid Reduction on the Pharmacokinetics of Ripretinib, a Switch Control KIT Tyrosine Kinase Inhibitor” (Clinical Pharmacology in Drug Development, 2022)
Like-named read-outs stand apart in the source and are kept apart here.

Columns and labels:
[1] = Pantoprazole (proton pump inhibitor) DDI study, plasma pharmacokinetics; format: in vivo, human; conditions: for AUC(0-t) / AUC(0-inf) / Cmax / half-life / Tmax: both sexes, human, plasma; for AUC(0-t) / AUC(0-inf) / Cmax / half-life: po; for AUC(0-t) / AUC(0-inf) / Cmax / half-life / Tmax / CL/F, arithmetic mean (SD) / CL/F, geometric mean (CV%): fasting; for Tmax: read-out: tmax, median (min, max); for Time postdose that mean plasma concentration remained above the LLOQ: LLOQ 2.00 ng/mL
Procedure: All studies were phase 1, fixed‐sequence, open‐label studies in healthy volunteers. One study consisted of two separate cohorts examining DDIs between ripretinib and itraconazole or pantoprazole, respectively; the rifampin study was conducted separately. Studies and cohorts were enrolled independently. Eligible participants were healthy male or female adults between 18 and 55 years of age with a body mass index (BMI) of ≥18.5 and ≤30 kg/m^2. Good health was confirmed by a physician and based on medical evaluation with no significant findings, including medical history, physical examination, laboratory tests, and 12‐lead electrocardiogram (ECG) at screening and day −1. Participants were required to abstain from alcohol, marijuana, grapefruit, Seville oranges, tangelo, star fruit, and grapefruit‐like products 14 days prior to and during the study. Participants with a positive breath test for Helicobacter pylori were excluded from the pantoprazole study.
Participants were confined to the study center on days 1 through 16. On day 1, participants received an oral dose of ripretinib 50 mg under fasting conditions (Figure 1C). On days 8 through 13, participants received pantoprazole 40 mg once daily. On day 14, participants received pantoprazole 40 mg once daily and ripretinib 50 mg simultaneously under fasting conditions.
Ripretinib and its active metabolite DP‐5439 plasma concentrations were measured using a validated high‐performance liquid chromatography (HPLC) with tandem mass spectrometry (LC‐MS/MS) assay with a lower limit of quantification (LLOQ) of 2.00 ng/mL for both analytes. In this method, the analytes (ripretinib and DP‐5439) and the internal standards (ISs; DCC‐2618‐d5 and DP‐5439‐d5) were released from human plasma samples by protein precipitation. The supernatants were chromatographed using reversed‐phase HPLC with a Betasil® C8 analytical column with deionized water (0.1% formic acid) and 40/60 acetonitrile/acetone (0.1% formic acid) as the mobile phase. Mass spectrometric detection was performed on a triple quadrupole tandem mass spectrometer API 5000 or API 5500 (Applied Biosystems/MDS Sciex, Toronto, Canada) equipped with a turbo ion spray source operated in the positive ionization mode. The source parameters were collision energy 40 eV, collision gas 6 psi, Nebulizer Gas 1, Turbo IonSpray Gas 2, and curtain gas 35 psi. Quantification was obtained by using multiple reaction monitoring mode of the transitions of mass to charge ratio [m/z] 510.3 →417 for DCC‐2618 (ripretinib), m/z 496.2 →403 for DP‐5439, m/z 515.3 →417 for DCC‐2618‐d5, and m/z 501.2 →403 for DP‐5439‐d5.
Plasma concentration–time data were analyzed using noncompartmental methods using Phoenix® WinNonlin® v7.0 (Certara USA Inc., Princeton, New Jersey). Derived PK parameters included area under the concentration–time curve from time 0 to time t (AUC0–t) and area under the concentration–time curve from 0 to infinity (AUC0–∞), maximum observed concentration (Cmax), time of maximum observed concentration (tmax), elimination half‐life (t1/2), apparent systemic clearance, and for DP‐5439, metabolite to parent ratio for AUC0–t, AUC0–∞, and Cmax.
The PK population included all participants who received ≥1 dose ripretinib and had ≥1 nonmissing PK concentration in plasma reported for ripretinib or DP‐5439. The PK evaluable set included all participants in the PK population who had ripretinib PK parameters on both ripretinib dosing days, bioanalytical results for ≥75% of planned analyses, no missed ripretinib doses and ≤2 missed perpetrator (itraconazole, pantoprazole, or rifampin) doses before the second dosing day of ripretinib, and no emesis within 8 hours of ripretinib administration. […]

[2] = tested on: hepatocytes; parameters: method as in PMID 31085175; conditions: cited from earlier work
[3] = target: T1, CYP2C8 (Homo sapiens, UniProt P10632); experiment: Human liver microsomes with chemical inhibitors; format: in vitro ADME; conditions: metabolism-dependent inhibitor gemfibrozil glucuronide
T1 sequence (P10632 1-490): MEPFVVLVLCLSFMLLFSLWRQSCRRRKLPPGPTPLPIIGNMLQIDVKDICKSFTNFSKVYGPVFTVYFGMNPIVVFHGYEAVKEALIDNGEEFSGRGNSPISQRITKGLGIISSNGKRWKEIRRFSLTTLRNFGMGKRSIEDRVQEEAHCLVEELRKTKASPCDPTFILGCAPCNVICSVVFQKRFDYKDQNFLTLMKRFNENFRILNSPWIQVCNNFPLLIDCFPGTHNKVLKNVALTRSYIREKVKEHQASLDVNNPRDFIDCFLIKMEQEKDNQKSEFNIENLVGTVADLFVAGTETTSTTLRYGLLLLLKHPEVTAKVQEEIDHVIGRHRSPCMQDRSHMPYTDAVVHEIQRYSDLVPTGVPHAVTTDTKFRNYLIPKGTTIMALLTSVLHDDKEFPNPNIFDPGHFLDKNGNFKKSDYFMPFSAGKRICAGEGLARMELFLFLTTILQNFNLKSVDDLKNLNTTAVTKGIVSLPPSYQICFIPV
Procedure: (§1) In vitro studies with recombinant human cytochrome P450 isoforms (CYPs) and human liver microsomes (with chemical inhibitors) indicate that CYP3A4/5 plays a major role in the metabolism of ripretinib (data on file). When incubated with a panel of recombinant human CYPs, ripretinib (0.1 or 1 μM) disappeared in the presence of CYP3A4 (87.8%–100%), CYP2D6 (97.7%–100%), CYP2C8 (71.2% and 18.9%, respectively), and CYP2C19 (15.7% and 6.7%, respectively).

[4] = target: T2, CYP2D6 (Homo sapiens, UniProt P10635); experiment: Human liver microsomes with chemical inhibitors; format: in vitro ADME
T2 construct: with human liver microsomes (0.5 mg protein/mL) for 30 minutes; from tissue; host or cells: human liver microsomes
Procedure: as §1

[5] = tested on: CYP3A4/5; experiment: Human liver microsomes with chemical inhibitors; format: in vitro ADME
Procedure: as §1

[6] = ripretinib 50 mg single oral dose + pantoprazole 40 mg QD, healthy participants (N = 23)
[7] = ripretinib 50 mg single oral dose alone, healthy participants (pantoprazole study, N = 23)
[8] = ripretinib 50 mg with pantoprazole 40 mg QD relative to ripretinib alone
[9] = ripretinib 50 mg with pantoprazole 40 mg QD relative to ripretinib alone, listed as ripretinib

T2 sequence (P10635 whole entry): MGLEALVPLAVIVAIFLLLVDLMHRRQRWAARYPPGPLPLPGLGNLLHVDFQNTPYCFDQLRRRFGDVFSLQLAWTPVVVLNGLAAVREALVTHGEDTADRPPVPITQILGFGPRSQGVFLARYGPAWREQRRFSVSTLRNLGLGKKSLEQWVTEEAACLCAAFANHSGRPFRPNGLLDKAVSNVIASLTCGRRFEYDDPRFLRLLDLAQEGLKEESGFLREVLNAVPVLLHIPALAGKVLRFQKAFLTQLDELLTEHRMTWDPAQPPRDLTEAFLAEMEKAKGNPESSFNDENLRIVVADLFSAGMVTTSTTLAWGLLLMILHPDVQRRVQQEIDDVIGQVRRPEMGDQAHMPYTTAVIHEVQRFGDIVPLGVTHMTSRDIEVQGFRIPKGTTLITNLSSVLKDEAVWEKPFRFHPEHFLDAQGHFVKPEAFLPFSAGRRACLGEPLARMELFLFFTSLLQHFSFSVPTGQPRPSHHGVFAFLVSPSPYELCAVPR

## CCn1c(=O)c(-c2cc(NC(=O)Nc3ccccc3)c(F)cc2Br)cc2cnc(NC)cc21 [Ripretinib]
[1]; 50 mg, ripretinib 50 mg single oral dose alone, healthy participants (pantoprazole study, N = 23), read-out: AUC0–t, arithmetic mean (SD)
  AUC(0-t): 3870 ng·h/mL
[1]; 50 mg, ripretinib 50 mg single oral dose alone, healthy participants (pantoprazole study, N = 23), read-out: AUC0–t, geometric mean (CV%)
  AUC(0-t): 3610 ng·h/mL
[1]; 50 mg, ripretinib 50 mg single oral dose alone, healthy participants (pantoprazole study, N = 23), read-out: AUC0–∞, arithmetic mean (SD)
  AUC(0-inf): 3950 ng·h/mL
[1]; 50 mg, ripretinib 50 mg single oral dose alone, healthy participants (pantoprazole study, N = 23), read-out: AUC0–∞, geometric mean (CV%)
  AUC(0-inf): 3690 ng·h/mL
[1]; 50 mg, ripretinib 50 mg single oral dose alone, healthy participants (pantoprazole study, N = 23), read-out: Cmax, arithmetic mean (SD)
  Cmax: 301 ng/mL
[1]; 50 mg, ripretinib 50 mg single oral dose alone, healthy participants (pantoprazole study, N = 23), read-out: Cmax, geometric mean (CV%)
  Cmax: 289 ng/mL
[1]; 50 mg, ripretinib 50 mg single oral dose alone, healthy participants (pantoprazole study, N = 23), read-out: t1/2, arithmetic mean (SD) (converted)
  half-life: 14 h
[1]; 50 mg, ripretinib 50 mg single oral dose alone, healthy participants (pantoprazole study, N = 23), read-out: t1/2, geometric mean (CV%) (converted)
  half-life: 13 h
[1]; ripretinib 50 mg single oral dose + pantoprazole 40 mg QD, healthy participants (N = 23), read-out: AUC0–t, arithmetic mean (SD)
  AUC(0-t): 4220 ng·h/mL
[1]; ripretinib 50 mg single oral dose + pantoprazole 40 mg QD, healthy participants (N = 23), read-out: AUC0–t, geometric mean (CV%)
  AUC(0-t): 3940 ng·h/mL
[1]; ripretinib 50 mg single oral dose + pantoprazole 40 mg QD, healthy participants (N = 23), read-out: AUC0–∞, arithmetic mean (SD)
  AUC(0-inf): 4310 ng·h/mL
[1]; ripretinib 50 mg single oral dose + pantoprazole 40 mg QD, healthy participants (N = 23), read-out: AUC0–∞, geometric mean (CV%)
  AUC(0-inf): 4030 ng·h/mL
[1]; ripretinib 50 mg single oral dose + pantoprazole 40 mg QD, healthy participants (N = 23), read-out: Cmax, arithmetic mean (SD)
  Cmax: 319 ng/mL
[1]; ripretinib 50 mg single oral dose + pantoprazole 40 mg QD, healthy participants (N = 23), read-out: Cmax, geometric mean (CV%)
  Cmax: 298 ng/mL
[1]; ripretinib 50 mg single oral dose + pantoprazole 40 mg QD, healthy participants (N = 23), read-out: t1/2, arithmetic mean (SD) (converted)
  half-life: 14 h
[1]; ripretinib 50 mg single oral dose + pantoprazole 40 mg QD, healthy participants (N = 23), read-out: t1/2, geometric mean (CV%) (converted)
  half-life: 14 h
[1]; [6]
  Tmax: 4 h
  CL/F, arithmetic mean (SD): 13 (5) L/h
  CL/F, geometric mean (CV%): 12 (38) L/h
[1]; [7]
  Tmax: 4 h
  CL/F, arithmetic mean (SD): 14 (5) L/h
  CL/F, geometric mean (CV%): 14 (38) L/h
[1]; ripretinib 50 mg + pantoprazole 40 mg QD
  Effect of pantoprazole on exposure / pharmacokinetics: no effect
[1]; ripretinib 50 mg alone (pantoprazole study)
  Time postdose that mean plasma concentration remained above the LLOQ: < 96 h
[1]; [8]
  Geometric LS mean ratio of AUC0–t: 109%
  Geometric LS mean ratio of AUC0–∞ (90% CI): 109 (98–122) %
  Geometric LS mean ratio of Cmax (90% CI): 103 (91–117) %
[1]; [9]
  Geometric LS mean ratio of AUC0–∞ (90% CI): 109%
  Geometric LS mean ratio of Cmax (90% CI): 103%
[1]; ripretinib 50 mg with pantoprazole
  Time postdose that mean plasma concentration remained above the LLOQ: < 96 h
[2]
  Major metabolic pathway: N‐demethylation
[3]
  Inhibition of metabolism of ripretinib on inhibition of CYP2C8: 24%
[4]; human liver microsomes, metabolism-dependent inhibitor paroxetine
  Inhibition of metabolism of ripretinib on inhibition of CYP2D6: 16%
[4]; ripretinib 0.1 μM, human liver microsomes 0.5 mg protein/mL, 30 minutes, with quinidine
  Decrease in metabolism of ripretinib on inhibition of CYP2D6: ≤ 26%
[5]; human liver microsomes, metabolism-dependent inhibitor troleandomycin
  Inhibition of metabolism of ripretinib on inhibition of CYP3A4/5: 79%
[5]; recombinant human CYPs and human liver microsomes with chemical inhibitors, data on file
  Role of CYP3A4/5 in metabolism: major role
[5]; ripretinib 0.1 μM, human liver microsomes 0.5 mg protein/mL, 30 minutes, with ketoconazole
  Decrease in metabolism of ripretinib on inhibition of CYP3A4/5: up to 63%
